Measured values taken from patent US20220380374A1, “1,4-DIHYDROBENZO[D]PYRAZOLO[3,4-F][1,3]DIAZEPINE DERIVATIVES AND RELATED COMPOUNDS AS LRRK2, NUAK1 AND/OR TYK2 KINASE MODULATORS FOR THE TREATMENT OF E.G. AUTOIMMUNE DISEASE” (Origenis GMBH, priority 2019, published 2022).

Target: T1, wt human NUAK1, full length (Homo sapiens, UniProt O60285)
T1 construct: 8 nM wt human NUAK1, full length (ThermoFisher/USA); purchased ThermoFisher/USA
T1 sequence (O60285 1-661): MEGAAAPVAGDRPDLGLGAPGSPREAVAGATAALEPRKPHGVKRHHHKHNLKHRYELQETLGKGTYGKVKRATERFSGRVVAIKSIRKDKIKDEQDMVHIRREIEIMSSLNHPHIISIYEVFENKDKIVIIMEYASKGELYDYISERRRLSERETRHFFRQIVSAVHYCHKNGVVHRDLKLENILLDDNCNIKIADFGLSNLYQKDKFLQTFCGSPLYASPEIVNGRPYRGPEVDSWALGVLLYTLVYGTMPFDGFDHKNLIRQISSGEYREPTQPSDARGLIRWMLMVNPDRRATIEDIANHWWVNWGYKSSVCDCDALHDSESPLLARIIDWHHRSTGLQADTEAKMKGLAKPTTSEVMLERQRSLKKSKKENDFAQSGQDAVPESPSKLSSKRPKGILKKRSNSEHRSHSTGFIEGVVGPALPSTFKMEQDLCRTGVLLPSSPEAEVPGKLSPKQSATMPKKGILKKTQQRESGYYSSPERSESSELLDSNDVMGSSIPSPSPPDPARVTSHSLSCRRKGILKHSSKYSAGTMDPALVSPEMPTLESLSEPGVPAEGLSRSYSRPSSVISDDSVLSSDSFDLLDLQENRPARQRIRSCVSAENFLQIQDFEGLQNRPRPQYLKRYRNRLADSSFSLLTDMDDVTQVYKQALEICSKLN
Assay: TR-FRET LanthaScreen Eu Kinase Binding Assay, NUAK1
Conditions: 5 nM Kinase Tracer 236; read-out: IC50, inhibitory activity toward NUAK1
Protocol: The basic protocol for TR-FRET LanthaScreen Eu Kinase Binding Assay inhibitor studies were performed as follows. LanthaScreen Kinase Binding Assays (ThermoFisher/USA) to evaluate inhibitors were performed by addition of 5 μl of test compound in corresponding DMSO dilutions/5 μl of kinase/antibody mixture, 5 μl of tracer into 384 well small volume plates. After incubation for 1 hour at room temperature, plates were read. Data analysis of emission ratios was according to LanthaScreen Eu Kinase Binding Assay protocol.
Kinase and assay components were adjusted to final concentrations according to the kit protocol. For LRRK2: 5 nM wt human LRRK2, catalytic site, or G2019S human LRRK2, catalytic site (ThermoFisher/USA), 2 nM Eu-Anti-GST Antibody, 10 nM Kinase Tracer 236 in 1× Kinase Buffer A. For NUAK1: 8 nM wt human NUAK1, full length (ThermoFisher/USA), 2 nM Eu-Anti-His Antibody, 5 nM Kinase Tracer 236 in 1× Kinase Buffer A.

Row | Compound | IC50
1 | Fc1cccc(Cl)c1C1=Nc2cn[nH]c2-c2cc(C(F)(F)F)ccc2N1 [Compound 47, 5-(2-chloro-6-fluorophenyl)-9-(trifluoromethyl)-1,6-dihydrobenzo[d]pyrazolo[3,4-f][1,3]diazepine] | 100 to 1000 nM
2 | Cc1ccc2c(c1)-c1n[nH]c(C)c1NC(c1c(F)cccc1F)=N2 [Compound 212, 5-(2,6-difluorophenyl)-3,9-dimethyl-2,4-dihydrobenzo[d]pyrazolo[3,4-f][1,3]diazepine] | 100 to 1000 nM
3 | CN(C)C(=O)Oc1ccc2c(c1)-c1[nH]ncc1NC(c1c(F)cccc1F)=N2 [Compound 136, 5-(2,6-difluorophenyl)-1,4-dihydrobenzo[d]pyrazolo[3,4-f][1,3]diazepin-9-yl dimethylcarbamate] | 100 to 1000 nM
4 | Cc1ccc2c(c1)-c1n[nH]cc1NC(c1c(F)cccc1C(F)(F)F)=N2 [Compound 206, 5-(2-fluoro-6-(trifluoromethyl)phenyl)-9-methyl-2,4-dihydrobenzo[d]pyrazolo[3,4-f][1,3]diazepine] | 100 to 1000 nM
5 | Cc1ccc2c(c1)-c1[nH]ncc1N=C(c1c(F)cc(Br)cc1F)N2 [Compound 176, 5-(4-bromo-2,6-difluorophenyl)-9-methyl-1,6-dihydrobenzo[d]pyrazolo[3,4-f][1,3]diazepine] | 100 to 1000 nM
6 | CCc1cc(F)c2c(c1)-c1[nH]ncc1NC(c1c(F)cccc1F)=N2 [Compound 167, 5-(2,6-difluorophenyl)-9-ethyl-7-fluoro-1,4-dihydrobenzo[d]pyrazolo[3,4-f][1,3]diazepine] | 100 to 1000 nM
7 | Cc1ccc2c(c1)-c1n[nH]cc1NC(c1c(F)cc(C(F)(F)F)cc1F)=N2 [Compound 205, 5-(2,6-difluoro-4-(trifluoromethyl)phenyl)-9-methyl-2,4-dihydrobenzo[d]pyrazolo[3,4-f][1,3]diazepine] | 100 to 1000 nM
8 | Fc1cccc(F)c1C1=Nc2cn[nH]c2-c2cc(OC(F)(F)F)ccc2N1 [Compound 40, 5-(2,6-difluorophenyl)-9-(trifluoromethoxy)-1,6-dihydrobenzo[d]pyrazolo[3,4-f][1,3]diazepine] | 100 to 1000 nM
9 | CSc1n[nH]c2c1NC(c1c(F)cccc1F)=Nc1ccc(C)cc1-2 [Compound 145, 5-(2,6-difluorophenyl)-9-methyl-3-(methylthio)-1,4-dihydrobenzo[d]pyrazolo[3,4-f][1,3]diazepine] | 100 to 1000 nM
10 | Fc1cccc(F)c1C1=Nc2c(C3CC3)n[nH]c2-c2ccccc2N1 [Compound 137, 3-cyclopropyl-5-(2,6-difluorophenyl)-1,6-dihydrobenzo[d]pyrazolo[3,4-f][1,3]diazepine] | 100 to 1000 nM
11 | CC(C)Oc1ccc2c(c1)NC(c1c(F)cccc1F)=Nc1cn[nH]c1-2 [Compound 100, 5-(2,6-difluorophenyl)-8-isopropoxy-1,6-dihydrobenzo[d]pyrazolo[3,4-f][1,3]diazepine] | 100 to 1000 nM
12 | Cc1ccc2c(c1)-c1[nH]ncc1N=C(c1c(F)ccc(N)c1F)N2 [Compound 177, 2,4-difluoro-3-(9-methyl-1,6-dihydrobenzo[d]pyrazolo[3,4-f][1,3]diazepin-5-yl)aniline] | 100 to 1000 nM
13 | FCc1ccc2c(c1)-c1[nH]ncc1N=C(c1c(F)cccc1F)N2 [Compound 51, 5-(2,6-difluorophenyl)-9-(fluoromethyl)-1,6-dihydrobenzo[d]pyrazolo[3,4-f][1,3]diazepine] | 100 to 1000 nM

The next lines start with the values.

Row | IC50 | Compound
14 | 10 to 100 nM | COc1cc(F)c(C2=Nc3cn[nH]c3-c3cc(C)ccc3N2)c(F)c1 [Compound 173, 5-(2,6-difluoro-4-methoxyphenyl)-9-methyl-1,6-dihydrobenzo[d]pyrazolo[3,4-f][1,3]diazepine]
15 | 100 to 1000 nM | FCCc1ccc2c(c1)-c1n[nH]cc1NC(c1c(F)cccc1F)=N2 [Compound 204, 5-(2,6-difluorophenyl)-9-(2-fluoroethyl)-2,4-dihydrobenzo[d]pyrazolo[3,4-f][1,3]diazepine]
16 | 10 to 100 nM | Cc1ccc2c(c1)-c1[nH]ncc1N=C(c1c(F)cc(F)cc1F)N2 [Compound 175, 9-methyl-5-(2,4,6-trifluorophenyl)-1,6-dihydrobenzo[d]pyrazolo[3,4-f][1,3]diazepine]
17 | 10 to 100 nM | Cc1ccc2c(c1)-c1n[nH]cc1NC(c1c(F)ccc(C)c1F)=N2 [Compound 178, 5-(2,6-difluoro-3-methylphenyl)-9-methyl-2,4-dihydrobenzo[d]pyrazolo[3,4-f][1,3]diazepine]
18 | 10 to 100 nM | Cc1cc(F)c(C2=Nc3ccc(C)cc3-c3n[nH]cc3N2)c(F)c1 [Compound 179, 5-(2,6-difluoro-4-methylphenyl)-9-methyl-2,4-dihydrobenzo[d]pyrazolo[3,4-f][1,3]diazepine]
19 | 100 to 1000 nM | Fc1cccc(F)c1C1=Nc2cn[nH]c2-c2cc(OC3CCOCC3)ccc2N1 [Compound 102, 5-(2,6-difluorophenyl)-9-((tetrahydro-2H-pyran-4-yl)oxy)-1,6-dihydrobenzo[d]pyrazolo[3,4-f][1,3]diazepine]
20 | 100 to 1000 nM | OCCc1ccc2c(c1)-c1n[nH]cc1NC(c1c(F)cccc1F)=N2 [Compound 208, 2-(5-(2,6-difluorophenyl)-2,4-dihydrobenzo[d]pyrazolo[3,4-f][1,3]diazepin-9-yl)ethan-1-ol]
21 | 10 to 100 nM | Fc1cccc(F)c1C1=Nc2ccc(CCCl)cc2-c2n[nH]cc2N1 [Compound 209, 9-(2-chloroethyl)-5-(2,6-difluorophenyl)-2,4-dihydrobenzo[d]pyrazolo[3,4-f][1,3]diazepine]
22 | 100 to 1000 nM | Cc1ccc2c(c1)-c1[nH]ncc1NC(c1c(F)ccc(F)c1Cl)=N2 [Compound 185, 5-(2-chloro-3,6-difluorophenyl)-9-methyl-1,4-dihydrobenzo[d]pyrazolo[3,4-f][1,3]diazepine]
23 | 100 to 1000 nM | Fc1cccc(Cl)c1C1=Nc2cnc(C(F)(F)F)cc2-c2[nH]ncc2N1 [Compound 188, 5-(2-chloro-6-fluorophenyl)-9-(trifluoromethyl)-1,4-dihydropyrazolo[4,3-d]pyrido[4,3-f][1,3]diazepine]
24 | 100 to 1000 nM | Fc1cccc(F)c1C1=Nc2cn[nH]c2-c2cc(-c3ccc[nH]3)cnc2N1 [Compound 87, 5-(2,6-difluorophenyl)-9-(1H-pyrrol-2-yl)-1,6-dihydropyrazolo[4,3-d]pyrido[3,2-f][1,3]diazepine]
25 | 100 to 1000 nM | NC(=O)c1cnc2c(c1)-c1[nH]ncc1N=C(c1c(F)cccc1F)N2 [Compound 140, 5-(2,6-difluorophenyl)-1,6-dihydropyrazolo[4,3-d]pyrido[3,2-f][1,3]diazepine-9-carboxamide]
26 | 10 to 100 nM | CCc1ccc2c(c1)-c1[nH]ncc1N=C(c1c(F)cccc1F)N2 [Compound 44, 5-(2,6-difluorophenyl)-9-ethyl-1,6-dihydrobenzo[d]pyrazolo[3,4-f][1,3]diazepine]
27 | 10 to 100 nM | Fc1cccc(F)c1C1=Nc2cn[nH]c2-c2cc(C(F)(F)F)ccc2N1 [Compound 46, 5-(2,6-difluorophenyl)-9-(trifluoromethyl)-1,6-dihydrobenzo[d]pyrazolo[3,4-f][1,3]diazepine]
28 | 10 to 100 nM | O=C(Nc1ccc2c(c1)-c1n[nH]cc1NC(c1c(F)cccc1F)=N2)OCc1ccccc1 [Compound 207, benzyl(5-(2,6-difluorophenyl)-2,4-dihydrobenzo[d]pyrazolo[3,4-f][1,3]diazepin-9-yl)carbamate]
